# Results published in ChEMBL document CHEMBL3745672, “Novel compounds reducing IRS-1 serine phosphorylation for treatment of diabetes” (Bioorg Med Chem Lett, 2016).
# Key:
# [1] = biological target: Mast/stem cell growth factor receptor Kit (Homo sapiens) (UniProt P10721); experiment: Inhibition of cKIT (unknown origin) at 10 uM
# [2] = biological target: Hepatocyte growth factor receptor (Homo sapiens) (UniProt P08581); experiment: Inhibition of cMET (unknown origin) at 10 uM
# [3] = biological target: Tyrosine-protein kinase CSK (Homo sapiens) (UniProt P41240); experiment: Inhibition of CSK (unknown origin) at 10 uM
# [4] = biological target: Receptor tyrosine-protein kinase erbB-2 (Homo sapiens) (UniProt P04626); experiment: Inhibition of ERBB2 (unknown origin) at 10 uM
# [5] = biological target: Insulin receptor (Homo sapiens) (UniProt P06213); experiment: Inhibition of INSR (unknown origin) at 10 uM
# [6] = biological target: T1, Tyrosine-protein kinase JAK3 (Homo sapiens) (UniProt P52333); experiment: Inhibition of JAK3 (unknown origin) at 10 uM
# T1 sequence (whole entry): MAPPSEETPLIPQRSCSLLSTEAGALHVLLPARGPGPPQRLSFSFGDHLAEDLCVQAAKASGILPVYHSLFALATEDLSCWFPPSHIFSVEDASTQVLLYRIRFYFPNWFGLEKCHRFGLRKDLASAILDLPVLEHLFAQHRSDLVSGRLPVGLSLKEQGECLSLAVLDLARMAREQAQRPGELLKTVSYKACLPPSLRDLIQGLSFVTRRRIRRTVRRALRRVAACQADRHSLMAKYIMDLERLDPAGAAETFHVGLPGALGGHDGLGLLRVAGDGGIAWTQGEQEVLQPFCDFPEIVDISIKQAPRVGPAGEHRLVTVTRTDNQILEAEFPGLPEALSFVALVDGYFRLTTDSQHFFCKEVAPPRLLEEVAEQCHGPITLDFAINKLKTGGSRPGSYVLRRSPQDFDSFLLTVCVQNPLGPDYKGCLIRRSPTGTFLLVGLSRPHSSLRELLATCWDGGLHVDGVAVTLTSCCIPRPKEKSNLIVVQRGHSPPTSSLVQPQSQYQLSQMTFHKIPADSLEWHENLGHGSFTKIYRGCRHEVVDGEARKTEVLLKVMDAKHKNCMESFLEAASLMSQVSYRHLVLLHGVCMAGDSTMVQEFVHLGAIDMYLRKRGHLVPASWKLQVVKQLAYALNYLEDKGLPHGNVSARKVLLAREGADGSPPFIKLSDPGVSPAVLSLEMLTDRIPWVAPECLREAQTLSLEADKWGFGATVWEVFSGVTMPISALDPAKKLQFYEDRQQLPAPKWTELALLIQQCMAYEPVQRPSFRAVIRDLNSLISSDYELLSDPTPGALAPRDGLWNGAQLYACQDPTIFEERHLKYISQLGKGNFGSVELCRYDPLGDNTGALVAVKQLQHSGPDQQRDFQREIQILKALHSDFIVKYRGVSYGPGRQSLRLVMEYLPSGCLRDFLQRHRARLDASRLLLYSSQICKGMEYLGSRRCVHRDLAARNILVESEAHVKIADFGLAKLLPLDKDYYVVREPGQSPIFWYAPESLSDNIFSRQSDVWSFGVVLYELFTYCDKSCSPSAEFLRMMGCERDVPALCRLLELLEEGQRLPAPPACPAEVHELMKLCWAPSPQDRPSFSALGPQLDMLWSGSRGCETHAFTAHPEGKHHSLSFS
# [7] = biological target: Mitogen-activated protein kinase 3 (Homo sapiens) (UniProt P27361); experiment: Inhibition of ERK1 (unknown origin) at 10 uM
# [8] = biological target: Serine/threonine-protein kinase PAK 1 (Homo sapiens) (UniProt Q13153); experiment: Inhibition of PAK1 (unknown origin) at 10 uM
# [9] = biological target: Serine/threonine-protein kinase PAK 4 (Homo sapiens) (UniProt O96013); experiment: Inhibition of PAK4 (unknown origin) at 10 uM
# [10] = biological target: Serine/threonine-protein kinase PLK3 (Homo sapiens) (UniProt Q9H4B4); experiment: Inhibition of PLK3 (unknown origin) at 10 uM
# [11] = biological target: Tyrosine-protein kinase SYK (Homo sapiens) (UniProt P43405); experiment: Inhibition of SYK (unknown origin) at 10 uM
# [12] = biological target: Death-associated protein kinase 3 (Homo sapiens) (UniProt O43293); experiment: Inhibition of DAPK3 (unknown origin) at 10 uM
# [13] = biological target: T2, Mitogen-activated protein kinase 8 (Homo sapiens, UniProt P45983); experiment: Inhibition of JNK1 (unknown origin) expressed in HEK293 cells assessed as anisomycin-induced JNK phosphorylation at 10 uM incubated for 30 mins by Western blot analysis relative to anisomycin; assay type: cell-based; set-up: scale not given: the % may be the effect or the level left
# [14] = biological target: Tyrosine-protein kinase ABL1 (Homo sapiens) (UniProt P00519); experiment: Inhibition of ABL (unknown origin) at 10 uM
# [15] = biological target: RAC-alpha serine/threonine-protein kinase (Homo sapiens) (UniProt P31749); experiment: Inhibition of AKT1 (unknown origin) at 10 uM
# [16] = biological target: T3, Aurora kinase A (Homo sapiens) (UniProt O14965); experiment: Inhibition of AurA (unknown origin) at 10 uM
# T3 sequence (whole entry): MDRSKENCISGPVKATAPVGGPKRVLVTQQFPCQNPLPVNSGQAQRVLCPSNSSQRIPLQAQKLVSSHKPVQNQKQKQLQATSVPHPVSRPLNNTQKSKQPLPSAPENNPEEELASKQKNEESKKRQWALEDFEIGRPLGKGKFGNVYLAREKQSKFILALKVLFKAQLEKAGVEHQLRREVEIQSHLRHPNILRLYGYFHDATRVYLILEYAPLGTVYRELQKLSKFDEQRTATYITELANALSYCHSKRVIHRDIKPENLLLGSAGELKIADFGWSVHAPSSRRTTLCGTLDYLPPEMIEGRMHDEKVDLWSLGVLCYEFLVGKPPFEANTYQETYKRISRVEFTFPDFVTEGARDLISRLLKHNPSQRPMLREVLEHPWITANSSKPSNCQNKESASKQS
# [17] = biological target: Serine/threonine-protein kinase B-raf (Homo sapiens) (UniProt P15056); experiment: Inhibition of B-RAF (unknown origin) at 10 uM
# [18] = biological target: CDK2/Cyclin A2 (Homo sapiens) (UniProt P24941+P20248); experiment: Inhibition of CDK2/CyclinA (unknown origin) at 10 uM; assay type: protein-complex assay
# [19] = biological target: Cyclin-dependent kinase 4/cyclin D1 (Homo sapiens) (UniProt P11802+P24385); experiment: Inhibition of CDK4/cyclin D1 (unknown origin) at 10 uM; assay type: protein-complex assay
# [20] = biological target: Epithelial discoidin domain-containing receptor 1 (Homo sapiens) (UniProt Q08345); experiment: Inhibition of DDR1 (unknown origin) at 1 uM
# [21] = biological target: T2, Mitogen-activated protein kinase 8; experiment: Inhibition of JNK1 (unknown origin) at 1 uM
# [22] = biological target: Serine/threonine-protein kinase PAK 1 (Homo sapiens) (UniProt Q13153); experiment: Inhibition of PAK1 (unknown origin) at 1 uM
# [23] = biological target: Protein kinase C alpha type (Homo sapiens) (UniProt P17252); experiment: Inhibition of PKCalpha (unknown origin) at 1 uM
# [24] = biological target: Proto-oncogene tyrosine-protein kinase Src (Homo sapiens) (UniProt P12931); experiment: Inhibition of SRC (unknown origin) at 1 uM
# Sequence of Mast/stem cell growth factor receptor Kit (Homo sapiens) (P10721 whole entry): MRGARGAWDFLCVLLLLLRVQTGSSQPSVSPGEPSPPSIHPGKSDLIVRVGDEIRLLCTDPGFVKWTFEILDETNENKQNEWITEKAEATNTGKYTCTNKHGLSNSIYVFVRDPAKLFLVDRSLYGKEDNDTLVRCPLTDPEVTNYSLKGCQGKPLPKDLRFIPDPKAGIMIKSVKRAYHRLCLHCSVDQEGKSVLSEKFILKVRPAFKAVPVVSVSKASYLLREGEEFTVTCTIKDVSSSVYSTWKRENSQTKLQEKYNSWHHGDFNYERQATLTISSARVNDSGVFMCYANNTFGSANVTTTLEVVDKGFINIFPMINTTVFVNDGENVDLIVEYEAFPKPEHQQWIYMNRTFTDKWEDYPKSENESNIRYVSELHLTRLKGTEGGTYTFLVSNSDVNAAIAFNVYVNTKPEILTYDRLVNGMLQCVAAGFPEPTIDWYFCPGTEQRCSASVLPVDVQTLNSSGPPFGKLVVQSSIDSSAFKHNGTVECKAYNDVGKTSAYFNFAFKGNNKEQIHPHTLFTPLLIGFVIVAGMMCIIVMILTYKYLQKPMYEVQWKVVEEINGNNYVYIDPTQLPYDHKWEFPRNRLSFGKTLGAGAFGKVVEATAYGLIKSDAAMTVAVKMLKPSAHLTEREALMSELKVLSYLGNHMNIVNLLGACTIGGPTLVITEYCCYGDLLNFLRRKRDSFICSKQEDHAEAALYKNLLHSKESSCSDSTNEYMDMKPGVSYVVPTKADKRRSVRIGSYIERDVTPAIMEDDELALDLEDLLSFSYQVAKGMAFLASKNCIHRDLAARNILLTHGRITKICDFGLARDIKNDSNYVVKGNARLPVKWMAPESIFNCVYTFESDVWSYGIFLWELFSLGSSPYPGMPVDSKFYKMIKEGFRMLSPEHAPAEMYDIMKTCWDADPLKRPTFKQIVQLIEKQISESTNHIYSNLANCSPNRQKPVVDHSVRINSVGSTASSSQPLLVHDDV
# T2 sequence (P45983 whole entry): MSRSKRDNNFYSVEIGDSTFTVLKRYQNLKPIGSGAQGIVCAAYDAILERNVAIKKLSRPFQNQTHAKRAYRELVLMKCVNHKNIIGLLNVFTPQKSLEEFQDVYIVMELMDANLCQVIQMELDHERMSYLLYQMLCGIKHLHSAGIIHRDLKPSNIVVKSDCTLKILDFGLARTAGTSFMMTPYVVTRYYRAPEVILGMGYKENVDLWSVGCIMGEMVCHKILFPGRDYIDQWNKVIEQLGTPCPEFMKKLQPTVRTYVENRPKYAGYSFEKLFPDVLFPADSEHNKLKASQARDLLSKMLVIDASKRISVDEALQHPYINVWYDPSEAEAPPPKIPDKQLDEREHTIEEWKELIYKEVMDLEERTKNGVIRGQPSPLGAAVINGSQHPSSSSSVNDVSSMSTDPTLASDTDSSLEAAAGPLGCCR
# Sequence of Mitogen-activated protein kinase 3 (Homo sapiens) (P27361 whole entry): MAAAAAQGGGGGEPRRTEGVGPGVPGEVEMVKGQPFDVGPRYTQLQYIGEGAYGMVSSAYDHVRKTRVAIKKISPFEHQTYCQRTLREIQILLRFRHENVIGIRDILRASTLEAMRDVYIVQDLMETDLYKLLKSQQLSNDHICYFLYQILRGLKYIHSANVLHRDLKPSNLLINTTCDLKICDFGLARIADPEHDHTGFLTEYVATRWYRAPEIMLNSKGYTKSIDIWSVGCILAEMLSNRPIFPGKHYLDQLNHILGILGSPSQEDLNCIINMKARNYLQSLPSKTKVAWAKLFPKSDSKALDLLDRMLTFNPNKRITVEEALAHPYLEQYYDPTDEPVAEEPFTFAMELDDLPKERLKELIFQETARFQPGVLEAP
# Sequence of Serine/threonine-protein kinase PLK3 (Homo sapiens) (Q9H4B4 whole entry, looked up): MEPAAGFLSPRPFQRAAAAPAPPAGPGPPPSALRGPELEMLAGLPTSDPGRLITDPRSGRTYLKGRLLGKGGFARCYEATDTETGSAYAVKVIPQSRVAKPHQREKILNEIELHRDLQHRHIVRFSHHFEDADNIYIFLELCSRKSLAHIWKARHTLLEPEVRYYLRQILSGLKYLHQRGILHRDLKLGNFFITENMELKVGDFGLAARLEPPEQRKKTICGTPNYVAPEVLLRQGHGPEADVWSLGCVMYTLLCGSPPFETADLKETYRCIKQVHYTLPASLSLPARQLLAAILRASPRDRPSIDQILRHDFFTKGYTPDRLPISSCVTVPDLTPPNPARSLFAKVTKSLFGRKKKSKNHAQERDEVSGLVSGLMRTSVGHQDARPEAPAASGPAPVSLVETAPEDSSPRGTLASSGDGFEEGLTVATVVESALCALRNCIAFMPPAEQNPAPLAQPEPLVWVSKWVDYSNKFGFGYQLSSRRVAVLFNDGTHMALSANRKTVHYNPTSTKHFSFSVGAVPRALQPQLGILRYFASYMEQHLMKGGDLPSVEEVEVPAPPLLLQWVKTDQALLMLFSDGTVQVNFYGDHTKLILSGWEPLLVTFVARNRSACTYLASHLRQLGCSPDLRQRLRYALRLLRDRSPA
# Sequence of Tyrosine-protein kinase ABL1 (Homo sapiens) (P00519 whole entry): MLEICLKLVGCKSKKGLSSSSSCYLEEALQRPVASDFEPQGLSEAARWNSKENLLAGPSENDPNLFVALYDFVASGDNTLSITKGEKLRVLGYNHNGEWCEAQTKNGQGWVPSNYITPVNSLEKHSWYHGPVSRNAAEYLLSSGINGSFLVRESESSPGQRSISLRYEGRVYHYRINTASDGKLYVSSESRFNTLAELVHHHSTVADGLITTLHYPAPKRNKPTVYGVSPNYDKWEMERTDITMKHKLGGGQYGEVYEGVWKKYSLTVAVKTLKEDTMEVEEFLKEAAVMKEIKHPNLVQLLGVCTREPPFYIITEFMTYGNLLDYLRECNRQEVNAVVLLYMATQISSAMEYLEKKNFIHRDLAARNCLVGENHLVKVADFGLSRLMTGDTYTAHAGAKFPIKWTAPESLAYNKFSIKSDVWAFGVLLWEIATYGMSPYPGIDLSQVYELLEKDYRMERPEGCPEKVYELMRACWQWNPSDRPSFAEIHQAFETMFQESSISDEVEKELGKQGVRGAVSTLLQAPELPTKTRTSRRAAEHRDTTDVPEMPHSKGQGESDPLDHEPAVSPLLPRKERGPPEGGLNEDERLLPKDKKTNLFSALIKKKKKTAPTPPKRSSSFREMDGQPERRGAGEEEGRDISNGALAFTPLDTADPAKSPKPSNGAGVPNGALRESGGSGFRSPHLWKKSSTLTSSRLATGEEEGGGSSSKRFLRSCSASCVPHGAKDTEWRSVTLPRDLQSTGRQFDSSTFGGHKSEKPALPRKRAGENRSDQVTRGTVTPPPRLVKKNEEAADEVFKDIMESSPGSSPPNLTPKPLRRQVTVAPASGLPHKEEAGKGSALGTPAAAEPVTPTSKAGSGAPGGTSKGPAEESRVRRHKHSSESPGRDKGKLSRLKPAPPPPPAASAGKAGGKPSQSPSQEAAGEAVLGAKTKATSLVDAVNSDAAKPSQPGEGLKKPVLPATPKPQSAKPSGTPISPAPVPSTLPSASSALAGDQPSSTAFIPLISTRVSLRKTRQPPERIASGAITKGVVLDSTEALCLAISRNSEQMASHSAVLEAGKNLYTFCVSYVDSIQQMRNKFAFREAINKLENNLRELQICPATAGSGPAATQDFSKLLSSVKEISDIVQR
# Sequence of Insulin receptor (Homo sapiens) (P06213 28-758 limits assumed): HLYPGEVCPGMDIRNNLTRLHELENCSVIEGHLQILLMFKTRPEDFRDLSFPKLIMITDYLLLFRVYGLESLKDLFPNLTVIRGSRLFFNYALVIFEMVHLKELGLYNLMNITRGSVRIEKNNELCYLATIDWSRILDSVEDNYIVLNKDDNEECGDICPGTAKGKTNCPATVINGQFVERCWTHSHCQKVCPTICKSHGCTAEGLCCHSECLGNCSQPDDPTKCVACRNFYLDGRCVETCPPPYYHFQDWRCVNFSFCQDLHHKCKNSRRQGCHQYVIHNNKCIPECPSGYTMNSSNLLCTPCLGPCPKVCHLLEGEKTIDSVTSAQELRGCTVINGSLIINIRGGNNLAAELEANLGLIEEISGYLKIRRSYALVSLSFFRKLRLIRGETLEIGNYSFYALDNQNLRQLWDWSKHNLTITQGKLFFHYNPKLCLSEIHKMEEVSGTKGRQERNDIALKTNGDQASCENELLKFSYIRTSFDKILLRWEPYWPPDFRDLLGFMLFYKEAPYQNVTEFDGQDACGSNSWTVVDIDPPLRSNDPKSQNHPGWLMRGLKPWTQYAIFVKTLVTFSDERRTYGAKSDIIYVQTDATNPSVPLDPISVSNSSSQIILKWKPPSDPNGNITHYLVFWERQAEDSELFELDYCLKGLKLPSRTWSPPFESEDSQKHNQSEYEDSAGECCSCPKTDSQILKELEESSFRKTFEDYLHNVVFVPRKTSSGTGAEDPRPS
# Sequence of Insulin receptor (Homo sapiens) (P06213 763-1382 limits assumed): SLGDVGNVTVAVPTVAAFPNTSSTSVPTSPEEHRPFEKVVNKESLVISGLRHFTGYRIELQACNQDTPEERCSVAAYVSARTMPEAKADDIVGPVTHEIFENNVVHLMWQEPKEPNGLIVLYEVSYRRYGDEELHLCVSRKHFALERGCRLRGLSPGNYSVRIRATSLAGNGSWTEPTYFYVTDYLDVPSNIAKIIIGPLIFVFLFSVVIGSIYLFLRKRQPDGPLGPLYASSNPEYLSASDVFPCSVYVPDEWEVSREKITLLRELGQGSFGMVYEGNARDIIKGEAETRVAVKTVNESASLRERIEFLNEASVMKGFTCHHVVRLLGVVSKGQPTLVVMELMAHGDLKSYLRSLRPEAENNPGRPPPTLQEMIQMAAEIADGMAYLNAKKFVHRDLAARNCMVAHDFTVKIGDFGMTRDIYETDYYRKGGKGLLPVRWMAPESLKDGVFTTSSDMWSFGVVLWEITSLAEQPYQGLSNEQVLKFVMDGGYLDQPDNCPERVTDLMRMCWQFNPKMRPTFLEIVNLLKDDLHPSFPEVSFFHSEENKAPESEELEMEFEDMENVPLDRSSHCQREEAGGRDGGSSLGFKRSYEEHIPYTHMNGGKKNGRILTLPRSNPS
SMILES,inhibition [1],inhibition [2],inhibition [3],inhibition [4],inhibition [5],inhibition [6],inhibition [7],inhibition [8],inhibition [9],inhibition [10],inhibition [11],Activity [13],inhibition [14],inhibition [15],inhibition [16],inhibition [17],inhibition [18],inhibition [19],inhibition [12],further results
CN1CCN(c2ccc(Nc3ncc4cc(Oc5c(Cl)cccc5Cl)c(=O)n(C)c4n3)cc2)CC1,47%,4%,8%,42%,0%,7%,10%,4%,18%,0%,0%,45%,91%,7%,12%,50%,14%,61%,15%,–
Cn1c(=O)c(Oc2ccc(F)cc2F)cc2cnc(NCCc3ccccn3)nc21,10%,5%,6%,19%,2%,0%,5%,0%,22%,0%,3%,82%,7%,6%,4%,35%,6%,17%,0%,–
Cn1c(=O)c(Oc2ccc(F)cc2F)cc2cnc(Nc3ccc(N4CCC(O)CC4)cc3)nc21,100%,11%,34%,78%,8%,55%,9%,6%,36%,33%,26%,29.6%,81%,11%,66%,61%,11%,30%,0%,–
Cn1c(=O)c(Oc2ccc(F)cc2F)cc2cnc(Nc3ccc(N4CCCCC4)cc3)nc21,35%,8%,15%,26%,5%,10%,6%,3%,29%,29%,8%,149%,20%,9%,14%,9%,10%,22%,0%,–
Cn1c(=O)c(Oc2c(Cl)cccc2Cl)cc2cnc(NC3CCOCC3)nc21,4%,1%,4%,11%,2%,0%,4%,0%,14%,0%,8%,55.2%,0%,3%,3%,7%,3%,16%,0%,–
Cn1c(=O)c(Oc2ccc(F)cc2F)cc2cnc(NC3CCN(S(C)(=O)=O)CC3)nc21,25%,0%,5%,0%,2%,0%,0%,8%,5%,0%,1%,77.2%,8%,0%,32%,49%,23%,62%,2%,–
Cn1c(=O)c(Oc2ccc(F)cc2F)cc2cnc(NC3CCN(S(N)(=O)=O)CC3)nc21,–,–,–,–,–,–,–,–,–,–,–,30.5%,–,–,–,–,–,–,–,inhibition [20]: 85%; inhibition [21]: 71%; inhibition [22]: 16%; inhibition [23]: 10%; inhibition [24]: 7%

# More lines, main results first:
inhibition [1],inhibition [2],inhibition [3],inhibition [4],inhibition [5],inhibition [6],inhibition [7],inhibition [8],inhibition [9],inhibition [10],inhibition [11],Activity [13],inhibition [14],inhibition [15],inhibition [16],inhibition [17],inhibition [18],inhibition [19],SMILES,inhibition [12],further results
0%,0%,5%,8%,0%,0%,5%,0%,20%,0%,3%,104%,0%,5%,7%,9%,13%,17%,CN(C)CCNc1ncc2cc(Oc3ccc(F)cc3F)c(=O)n(C)c2n1,0%,–
96%,0%,20%,74%,5%,41%,5%,6%,0%,1%,13%,133%,100%,0%,54%,53%,0%,61%,CN1CCN(c2ccc(Nc3ncc4cc(Oc5ccc(F)cc5F)c(=O)n(C)c4n3)cc2)CC1,12%,–
8%,0%,4%,23%,2%,0%,0%,0%,2%,0%,0%,153%,24%,0%,6%,13%,3%,6%,CN1CCN(CCCNc2ncc3cc(Oc4ccc(F)cc4F)c(=O)n(C)c3n2)CC1,12%,–
